Drawing on US20200405697A1, “Antitumor Agent” (Taiho Pharmaceutical Co., Ltd, priority 2017, published 2020), this text covers IC50 for 22 compounds.

The target of the assay is T1, human RNR (histidine tagged human M1 and human M2 proteins) (Homo sapiens, UniProt P23921).
T1 construct: made in house; host or cells: Escherichia coli
T1 sequence (P23921 1-792): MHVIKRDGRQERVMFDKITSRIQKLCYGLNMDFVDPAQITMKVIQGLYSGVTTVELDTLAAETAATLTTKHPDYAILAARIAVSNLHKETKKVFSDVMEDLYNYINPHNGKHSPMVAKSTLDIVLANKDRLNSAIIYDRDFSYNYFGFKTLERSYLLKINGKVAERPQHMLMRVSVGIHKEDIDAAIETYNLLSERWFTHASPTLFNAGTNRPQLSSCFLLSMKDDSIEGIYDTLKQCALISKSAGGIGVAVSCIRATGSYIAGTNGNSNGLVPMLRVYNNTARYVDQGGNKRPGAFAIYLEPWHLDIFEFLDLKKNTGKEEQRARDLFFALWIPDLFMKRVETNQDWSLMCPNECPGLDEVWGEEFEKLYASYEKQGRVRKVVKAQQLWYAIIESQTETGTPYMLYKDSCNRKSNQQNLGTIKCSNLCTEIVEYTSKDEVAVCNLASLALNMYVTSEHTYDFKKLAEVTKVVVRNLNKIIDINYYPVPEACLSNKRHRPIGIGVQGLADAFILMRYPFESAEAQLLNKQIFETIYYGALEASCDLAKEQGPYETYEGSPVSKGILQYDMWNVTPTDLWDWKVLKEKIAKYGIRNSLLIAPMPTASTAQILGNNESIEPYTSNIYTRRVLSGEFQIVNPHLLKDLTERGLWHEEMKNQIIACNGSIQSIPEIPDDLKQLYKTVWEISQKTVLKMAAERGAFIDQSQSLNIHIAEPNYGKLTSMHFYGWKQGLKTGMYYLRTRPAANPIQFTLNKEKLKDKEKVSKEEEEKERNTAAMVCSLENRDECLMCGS
In words: Human RNR inhibition effect (dCDP formation from CDP). Type of assay: biochemical. To be noted: 10 μM CDP, 37° C. for 30 minutes, read-out: RNR inhibitory activity IC50. The method, then:
The inhibitory activity against the ribonucleotide reduction reaction (RNR inhibitory activity) of the Example compound was determined by measuring the formation of deoxycytidine diphosphate (hereinafter referred to as dCDP) from cytidine diphosphate (hereinafter referred to as CDP) by the following method.
Human M1 subunit (isoform 1, GenBank accession No: NM_001033), to which a histidine tag is fused at the amino terminus, and human M2 subunit (mutant lacking amino terminal 59 amino acids of isoform 2, GenBank accession No: NM_001034), to which a histidine tag is fused, were overexpressed in Escherichia coli and were solubilized after collection, and histidine tagged human M1 and histidine tagged human M2 proteins were purified on a nickel chelate column. A mixture of the histidine tagged human M1 and histidine tagged human M2 proteins was used as RNR in the ribonucleotide reduction reaction. [to]
First, Example compounds were serially diluted with DMSO. Next, human M1 protein and human M2 protein were added to a 0.02% aqueous albumin solution derived from fetal bovine serum, a DMSO solution of the Example compound or the control DMSO solution (final concentration of DMSO was 1%) was added, and the mixture was allowed to stand for 20 minutes. Thereafter, the reaction buffer [50 mM HEPES buffer (pH 7.2) at the final concentration, 4 mM magnesium acetate at the final concentration, 100 mM potassium chloride at the final concentration, 6 mM dithiothreitol at the final concentration, 2 mM adenosine triphosphate at the final concentration, 0.24 mM nicotinamide adenine dinucleotide phosphate at final concentration] and 10 μM CDP at the final concentration were added and incubated at 37° C. for 30 minutes to perform ribonucleotide reduction reaction. Immediately after the reaction, the reaction was stopped by heating at 100° C. for 15 minutes, followed by centrifugation at 10,000 rpm for 10 minutes. After the centrifugation, a portion (5 μL) of the resulting supernatant was analyzed with a high performance liquid chromatography (Shimadzu Corporation, Prominence) using Shim-pack XR-ODS (manufactured by Shimadzu GLC Co., 3.0×100 mm).

The structures appear in SMILES notation.

Take `Cc1c(Cl)ccc(F)c1[C@@H](C)[C@H](NS(=O)(=O)c1ccc(Cl)c2c1OCCC2(C)N)c1n[nH]c(=O)o1` (single isomer, unassigned) [Example 330A]: the IC50 was determined as 120 nM. Under `Cc1c(Cl)ccc(F)c1[C@@H](C)[C@H](NS(=O)(=O)c1ccc(Cl)c2c1OCCC2(C)N)c1n[nH]c(=O)o1` (single isomer, unassigned) [Example 330B] stands 460 nM; under `Cc1cccc([C@@H](C)[C@H](NS(=O)(=O)c2ccc(Cl)cc2C(N)=O)c2n[nH]c(=O)o2)c1C` [Example 3, 5-chloro-2-(N-((1S,2R)-2-(2,3-dimethylphenyl)-1-(5-oxo-4,5-dihydro-1,3,4-oxadiazol-2-yl)propyl)sulfamoyl)benzamide], 300 nM. In the case of `Cc1cccc([C@@H](C)[C@H](NS(=O)(=O)c2ccc(Br)cc2C(N)=O)c2n[nH]c(=O)o2)c1C` [Example 4, 5-bromo-2-(N-((1S,2R)-2-(2,3-dimethylphenyl)-1-(5-oxo-4,5-dihydro-1,3,4-oxadiazol-2-yl)propyl)sulfamoyl)benzamide] it was 380 nM.

On to `C[C@H](c1c(F)ccc2ccccc12)[C@H](NS(=O)(=O)c1ccc(Cl)cc1C(N)=O)c1n[nH]c(=O)o1` [Example 6, 5-chloro-2-(N-((1S,2R)-2-(2-fluoronaphthalen-1-yl)-1-(5-oxo-4,5-dihydro-1,3,4-oxadiazol-2-yl)propyl)sulfamoyl)benzamide], for which the half-inhibitory concentration (IC50) amounted to 110 nM.

With `Cc1cc(F)cc([C@@H](C)[C@H](NS(=O)(=O)c2ccc(Cl)cc2C(N)=O)c2n[nH]c(=O)o2)c1C` [Example 7, 15-chloro-2-(N-((1S,2R)-2-(5-fluoro-2,3-dimethylphenyl)-1-(5-oxo-4,5-dihydro-1,3,4-oxadiazol-2-yl)propyl)sulfamoyl)benzamide], the IC50 stood at 450 nM. `C[C@H](c1cc(F)cc2ccccc12)[C@H](NS(=O)(=O)c1ccc(Cl)cc1C(N)=O)c1n[nH]c(=O)o1` [Example 9, 5-chloro-2-(N-((1S,2R)-2-(3-fluoronaphthalen-1-yl)-1-(5-oxo-4,5-dihydro-1,3,4-oxadiazol-2-yl)propyl)sulfamoyl)benzamide]: the IC50 is 600 nM.

For the compound `Cc1ccc(S(=O)(=O)N[C@H](c2n[nH]c(=O)o2)[C@H](C)c2c(F)ccc(C)c2C)c(C(N)=O)c1` [Example 10, 2-(N-((1S,2R)-2-(3-6-fluoro-2,3-dimethylphenyl)-1-(5-oxo-4,5-dihydro-1,3,4-oxadiazol-2-yl)propyl)sulfamoyl)-5-methylbenzamide], the IC50 was 140 nM. Under `Cc1ccc(S(=O)(=O)N[C@H](c2n[nH]c(=O)o2)[C@H](C)c2c(F)ccc3ccccc23)c(C(N)=O)c1` [Example 12, 2-(N-((1S,2R)-2-(2-Fluoronaphthalen-1-yl)-1-(5-oxo-4,5-dihydro-1,3,4-oxadiazol-2-yl)propyl)sulfamoyl)-5-methylbenzamide] stands 170 nM; under `Cc1cc(F)c(F)c([C@@H](C)[C@H](NS(=O)(=O)c2ccc(Cl)cc2C(N)=O)c2n[nH]c(=O)o2)c1C` [Example 13, 5-chloro-2-(N-((1S,2R)-2-(2,3-difluoro-5,6-dimethylphenyl)-1-(5-oxo-4,5-dihydro-1,3,4-oxadiazol-2-yl)propyl)sulfamoyl)benzamide], 140 nM. Under `C[C@H](c1c(F)ccc2ccccc12)[C@H](NS(=O)(=O)c1ccc(Br)cc1C(N)=O)c1n[nH]c(=O)o1` [Example 15, 5-bromo-2-(N-((1S,2R)-2-(2-fluoronaphthalen-1-yl)-1-(5-oxo-4,5-dihydro-1,3,4-oxadiazol-2-yl)propyl)sulfamoyl)benzamide] stands 100 nM; under `Cc1ccc(F)c([C@@H](C)[C@H](NS(=O)(=O)c2ccc(C3CC3)cc2C(N)=O)c2n[nH]c(=O)o2)c1C` [Example 16, 5-Cyclopropyl-2-(N-((1S,2R)-2-(6-Fluoro-2,3-dimethylphenyl)-1-(5-oxo-4,5-dihydro-1,3,4-oxadiazol-2-yl)propyl)sulfamoyl)benzamide], 130 nM; under `Cc1ccc(F)c([C@@H](C)[C@H](NS(=O)(=O)c2ccc(Cl)cc2C(N)=O)c2n[nH]c(=O)o2)c1Cl` [Example 17, 5-chloro-2-(N-((1S)-2-(2-chloro-6-fluoro-3-methylphenyl)-1-(5-oxo-4,5-dihydro-1,3,4-oxadiazol-2-yl)propyl)sulfamoyl)benzamide], 500 nM. Under `CCc1ccc(S(=O)(=O)N[C@H](c2n[nH]c(=O)o2)[C@H](C)c2c(F)ccc(C)c2C)c(C(N)=O)c1` [Example 18, 5-Ethyl-2-(N-((1S,2R)-2-(6-fluoro-2,3-dimethylphenyl)-1-(5-oxo-4,5-dihydro-1,3,4-oxadiazol-2-yl)propyl)sulfamoyl)benzamide] stands 130 nM; under `Cc1ccc(F)c([C@@H](C)[C@H](NS(=O)(=O)c2ccc(Cl)nc2C(N)=O)c2n[nH]c(=O)o2)c1C` [Example 19, 6-Chloro-3-(N-((1S,2R)-2-(6-fluoro-2,3-dimethylphenyl)-1-(5-oxo-4,5-dihydro-1,3,4-oxadiazol-2-yl)propyl)sulfamoyl)picolinamide], 190 nM; under `Cc1ccc(F)c([C@@H](C)[C@H](NS(=O)(=O)c2ccccc2C(N)=O)c2n[nH]c(=O)o2)c1C` [Example 20, 2-(N-((1S,2R)-2-(6-fluoro-2,3-dimethylphenyl)-1-(5-oxo-4,5-dihydro-1,3,4-oxadiazol-2-yl)propyl)sulfamoyl)benzamide], 260 nM.

In the case of `Cc1ccc(F)c([C@@H](C)[C@H](NS(=O)(=O)c2ccc(Cl)cc2C(N)=O)c2n[nH]c(=O)o2)c1` [Example 21, 5-chloro-2-(N-((1S,2R)-2-(2-fluoro-5-methylphenyl)-1-(5-oxo-4,5-dihydro-1,3,4-oxadiazol-2-yl)propyl)sulfamoyl)benzamide], the IC50 turned out to be 240 nM. In the case of `Cc1cccc(F)c1[C@@H](C)[C@H](NS(=O)(=O)c1ccc(Cl)cc1C(N)=O)c1n[nH]c(=O)o1` [Example 22, 5-chloro-2-(N-((1S,2R)-2-(2-fluoro-6-methylphenyl)-1-(5-oxo-4,5-dihydro-1,3,4-oxadiazol-2-yl)propyl)sulfamoyl)benzamide] it was 340 nM.

Turning to `Cc1cccc(F)c1[C@H](C)[C@H](NS(=O)(=O)c1ccc(Cl)cc1C(N)=O)c1n[nH]c(=O)o1` [Example 23, 5-chloro-2-(N-((1S,2S)-2-(2-fluoro-6-methylphenyl)-1-(5-oxo-4,5-dihydro-1,3,4-oxadiazol-2-yl)propyl)sulfamoyl)benzainide], the IC50 was 740 nM. Under `Cc1c(Cl)ccc(F)c1[C@@H](C)[C@H](NS(=O)(=O)c1ccc(Br)cc1C(N)=O)c1n[nH]c(=O)o1` [Example 25, 5-bromo-2-(N-((1S,2R)-2-(3-chloro-6-fluoro-2-methylphenyl)-1-(5-oxo-4,5-dihydro-1,3,4-oxadiazol-2-yl)propyl)sulfamoyl)benzamide] stands 150 nM; under `Cc1c(C2CC2)ccc(F)c1[C@@H](C)[C@H](NS(=O)(=O)c1ccc(Cl)cc1C(N)=O)c1n[nH]c(=O)o1` [Example 26, 5-chloro-2-(N-((1S,2R)-2-(3-cyclopropyl-6-fluoro-2-methylphenyl)-1-(5-oxo-4,5-dihydro-1,3,4-oxadiazol-2-yl)propyl)sulfamoyl)benzamide], 160 nM; under `Cc1c(C(F)(F)F)ccc(F)c1[C@@H](C)[C@H](NS(=O)(=O)c1ccc(Cl)cc1C(N)=O)c1n[nH]c(=O)o1` [Example 27, 5-chloro-2-(N-((1S,2R)-2-(6-fluoro-2-methyl-3-(trifluoromethyl)phenyl)-1-(5-oxo-4,5-dihydro-1,3,4-oxadiazol-2-yl)propyl)sulfamoyl)benzamide], 550 nM.

What is called IC50 is the concentration at which inhibition is half-maximal.
